Measurements: patent US20110034371A1, “L. CASEI RHAMNOSUS SECRETED FACTORS AND USE THEREOF” (priority 2009, published 2011)

Columns and labels:
THP-1 cells = assay: Annexin V-FITC and PI staining, flow cytometry: apoptosis of THP-1 cells; type: cell-based, human
Description: (§1) Lymphocytes, monocytes and THP-1 cells (10^6 per test) were collected after incubation with LcrS, 3.125-25 μg mL^−1, for various times. After washing twice with PBS, the cells were resuspended in Annexin V binding buffer (10 mM HEPES-NaOH (pH 7.4), 140 mM NaCl, and 2.5 mM CaCl2). After centrifugation, the cells were incubated in 500 μl of the same buffer containing 1.25 it FITC-conjugated Annexin V (BD PharMingen, San Diego, Calif., USA) at room temperature for 15 min in the dark. Data acquisition and analysis were performed by the Becton-Dickinson FACSan flow cytometer (Franklin Lakes, N.J., USA) using CellQuest software (Becton-Dickinson, Oxford, UK). […]
as §1, with “500 W” for “500 μl”, “1.25 μl” for “1.25 it”
as §1, with “1.25 μl” for “1.25 it”
The TGF-β regulates a wide variety of biological functions including apoptosis. The TGF-β production was increasing in the LcrS5-30 treated THP-1 cells. It was reasonable to postulate that apoptosis might be triggered by TGF-β rather than the LcrS5-30. To confirm this assumption, a pharmacological inhibitor, SB431542, would be applied. The percentages of apoptotic cells in 10 ng mL^−1 and 1 ng mL^−1 TGF-β exposed preparations were 18.9±0.44% and 16.57±0.67%, respectively (FIG. 8B). Treatment with 12.5 μg mL^−1 or 25 μg mL^−1 of the LcrS5-30 induced dissimilar level of apoptosis of THP-1 cells that were 26.35±0.77% and 74.96±0.38%, respectively.

[1] = tested on: human peripheral blood T cells; conditions: 18 h culture, 5 μg mL^−1; cited from earlier work

## NC(=O)c1ccc(-c2nc(-c3ccc4c(c3)OCO4)c(-c3ccccn3)[nH]2)cc1 [SB-431542]
THP-1 cells; 1 μg mL^−1 inhibitor, 24 h
  blocking of TGF-β1-induced apoptosis: significantly blocked
  blocking of apoptosis: significantly blocked

## TGF-β: anti-inflammatory cytokine applied to THP-1 cells at 1 and 10 ng mL^−1
THP-1 cells; 1 ng mL^−1, 24 h
  percentage of apoptotic cells: 16.57±0.67%
THP-1 cells; 10 ng mL^−1, 24 h
  percentage of apoptotic cells: 18.9±0.44%
THP-1 cells; One ng mL^−1, 1 μg mL^−1 SB431542, 24 h
  induced apoptosis in the presence of TGF-β inhibitor SB431542: SB431542 sensitive

## infliximab
[1]
  killing activity (as much as): ≤ 50.6%
